From patent publication US8916557B2, “Substituted 4-Aryl-N-phenyl-1,3,5-triazin-2-amines” (Bayer Intellectual Property GmbH, priority 2011, dated 2014)
pIC50: −log10 of the molar value.

Assays:
[1] = molecular target: T1, CDK9/CycT1 (Homo sapiens, UniProt P50750); experiment: CDK9/CycT1 kinase assay (TR-FRET); format: biochemical; details: Method 1, 10 μM ATP
T1 construct: Recombinant full-length His-tagged human CDK9 and CycT1; His; purchased Invitrogen PV4131; host or cells: insect cells
In short: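 Full-length His-tagged human CDK9/CycT1 (insect-cell expressed), 15 min compound pre-incubation, then 25 min at 22 °C with 10 µM ATP (final) and 1 µM biotinylated peptide (final) in Tris pH 8.0/MgCl2 buffer. Phospho-substrate detected by TR-FRET (anti-RB pSer807/pSer811, Eu anti-mouse IgG, streptavidin-XL665); 665/622 nm emission ratio as read-out.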

[2] = system: HeLa-MaTu-ADR, multidrug-resistant human cervical carcinoma cells; experiment: Proliferation assay (crystal violet), HeLa-MaTu-ADR; format: cell-based; details: read-out: Inhibition of HeLa/MaTu/ADR cell proliferation
Procedure: (§1) Cultivated tumour cells (NCI-H460, human non-small cell lung carcinoma cells, ATCC HTB-177; DU 145, hormone-independent human prostate carcinoma cells, ATCC HTB-81; HeLa-MaTu, human cervical carcinoma cells, EPO-GmbH, Berlin; HeLa-MaTu-ADR, multidrug-resistant human cervical carcinoma cells, EPO-GmbH, Berlin; HeLa human cervical tumour cells, ATCC CCL-2; Caco-2 human colorectal carcinoma, ATCC HTB-37; B16F10 mouse melanoma cells, ATCC CRL-6475) were plated at a density of 5000 cells/well (DU145, HeLa-MaTu-ADR), 3000 cells/well (NCI-H460, HeLa-MaTu, HeLa), 1500 cells/well (Caco-2), or 1000 cells/well (B16F10) in a 96-well multititer plate in 200 μL of their respective growth medium supplemented 10% fetal calf serum. After 24 hours, the cells of one plate (zero-point plate) were stained with crystal violet (see below), while the medium of the other plates was replaced by fresh culture medium (200 μl), to which the test substances were added in various concentrations (0 μM, as well as in the range of 0.001-10 μM; the final concentration of the solvent dimethyl sulfoxide was 0.5%). The cells were incubated for 4 days in the presence of test substances. Cell proliferation was determined by staining the cells with crystal violet: the cells were fixed by adding 20 μl/measuring point of an 11% glutaric aldehyde solution for 15 minutes at room temperature. After three washing cycles of the fixed cells with water, the plates were dried at room temperature. The cells were stained by adding 100 μl/measuring point of a 0.1% crystal violet solution (pH 3.0). After three washing cycles of the stained cells with water, the plates were dried at room temperature. The dye was dissolved by adding 100 μl/measuring point of a 10% acetic acid solution. The extinction was determined by photometry at a wavelength of 595 nm. The change of cell number, in percent, was calculated by normalization of the measured values to the extinction values of the zero-point plate (=0%) and the extinction of the untreated (0 μm) cells (=100%). The IC50 values were determined by means of a 4 parameter fit.

[3] = system: B16F10 mouse melanoma cells; experiment: Proliferation assay (crystal violet), B16F10; format: cell-based; details: B16-F10, read-out: Inhibition of B16F10 cell proliferation
Procedure: as §1

T1 sequence (P50750 whole entry): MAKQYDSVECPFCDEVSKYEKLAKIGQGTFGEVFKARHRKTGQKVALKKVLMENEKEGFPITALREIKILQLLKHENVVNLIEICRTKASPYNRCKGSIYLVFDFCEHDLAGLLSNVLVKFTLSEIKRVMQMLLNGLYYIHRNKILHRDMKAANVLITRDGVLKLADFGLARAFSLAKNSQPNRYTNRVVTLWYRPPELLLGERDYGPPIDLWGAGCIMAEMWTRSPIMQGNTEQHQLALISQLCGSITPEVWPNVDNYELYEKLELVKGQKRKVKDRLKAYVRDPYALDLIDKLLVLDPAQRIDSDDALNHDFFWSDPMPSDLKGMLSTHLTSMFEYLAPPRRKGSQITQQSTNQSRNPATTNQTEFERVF
T1 sequence (O60563 whole entry partner): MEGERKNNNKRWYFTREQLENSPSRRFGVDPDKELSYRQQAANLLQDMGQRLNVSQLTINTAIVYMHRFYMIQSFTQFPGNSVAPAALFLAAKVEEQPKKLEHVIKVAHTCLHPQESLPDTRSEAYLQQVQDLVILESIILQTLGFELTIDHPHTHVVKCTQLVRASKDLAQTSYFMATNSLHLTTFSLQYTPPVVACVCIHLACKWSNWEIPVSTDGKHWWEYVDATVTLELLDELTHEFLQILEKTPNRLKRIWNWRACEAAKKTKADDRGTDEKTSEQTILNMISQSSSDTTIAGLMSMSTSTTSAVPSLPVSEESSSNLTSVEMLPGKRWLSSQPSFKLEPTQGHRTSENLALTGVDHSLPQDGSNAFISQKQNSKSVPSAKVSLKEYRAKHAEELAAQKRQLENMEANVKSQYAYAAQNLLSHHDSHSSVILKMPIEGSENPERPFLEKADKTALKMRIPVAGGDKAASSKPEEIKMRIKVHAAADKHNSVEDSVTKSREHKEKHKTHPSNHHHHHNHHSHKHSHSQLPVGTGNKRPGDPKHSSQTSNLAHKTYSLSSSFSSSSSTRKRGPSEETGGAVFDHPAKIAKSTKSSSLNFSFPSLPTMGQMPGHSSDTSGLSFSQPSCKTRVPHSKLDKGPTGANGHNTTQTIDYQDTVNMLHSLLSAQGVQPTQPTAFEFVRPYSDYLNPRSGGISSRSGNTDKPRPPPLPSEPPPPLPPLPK

Compound `CS(=O)(=O)Cc1cccc(Nc2ncnc(-c3ccc(Cl)cc3OC3CCCC3)n2)c1` [Example 29, 4-[4-Chloro-2-(cyclopentyloxy)phenyl]-N-{3-[(methylsulfonyl)methyl]phenyl}-1,3,5-triazin-2-amine] has a pIC50 [1] of 6.21, a pIC50 [2] of 6.40 and a pIC50 [3] of 6.19.
Compound `CS(=O)(=O)Cc1cccc(Nc2ncnc(-c3ccc(F)cc3OCc3ccnc(Cl)c3)n2)c1` [Example 88, 4-{2-[(2-Chloropyridin-4-yl)methoxy]-4-fluorophenyl}-N-{3-[(methylsulfonyl)-methyl]phenyl}-1,3,5-triazin-2-amine] has a pIC50 [1] of 8.40, a pIC50 [2] of 6.57 and a pIC50 [3] of 6.64.
`COc1cc(F)c(F)cc1-c1ncnc(Nc2cccc(CS(C)(=O)=O)c2)n1` [Example 1, 4-(4,5-Difluoro-2-methoxyphenyl)-N-{3-[(methylsulfonyl)methyl]phenyl}-1,3,5-triazin-2-amine] was tested, and the pIC50 [1] was 7.85, the pIC50 [2] was 6.40 and the pIC50 [3] was 6.00.
For `Cc1cccc(COc2cc(F)ccc2-c2ncnc(Nc3cccc(CS(C)(=O)=O)c3)n2)c1` [Example 83, 4-{4-Fluoro-2-[(3-methylbenzyl)oxy]phenyl}-N-{3-[(methylsulfonyl)-methyl]phenyl}-1,3,5-triazin-2-amine], the pIC50 [1] was 8.30, the pIC50 [2] was 6.46 and the pIC50 [3] was 6.36.
`CC#CCOc1cc(F)ccc1-c1ncnc(Nc2cccc(CS(C)(=O)=O)c2)n1` [Example 62, 4-[2-(But-2-yn-1-yloxy)-4-fluorophenyl]-N-{3-[(methylsulfonyl)methyl]phenyl}-1,3,5-triazin-2-amine] showed a pIC50 [1] of 8.52, a pIC50 [2] of 6.74 and a pIC50 [3] of 6.62.
With `CCCCOc1cc(F)ccc1-c1ncnc(Nc2cccc(CS(C)(=O)=O)c2)n1` [Example 44, 4-(2-Butoxy-4-fluorophenyl)-N-{3-[(methylsulfonyl)-methyl]phenyl}-1,3,5-triazin-2-amine] the pIC50 [1] was 8.05, the pIC50 [2] was 6.49 and the pIC50 [3] was 6.24.
`CS(=O)(=O)Cc1cccc(Nc2ncnc(-c3cccc4c3OCCO4)n2)c1` [Example 18, 4-(2,3-Dihydro-1,4-benzodioxin-5-yl)-N-{3-[(methylsulfonyl)methyl]phenyl}-1,3,5-triazin-2-amine] was tested, and the pIC50 [1] was 8.10, the pIC50 [2] was 6.40 and the pIC50 [3] was 6.19.
Compound `COc1cc(F)ccc1-c1ncnc(Nc2cc(F)cc(CS(C)(=O)=O)c2)n1` [Example 10, 4-(4-Fluoro-2-methoxyphenyl)-N-{3-fluoro-5-[(methylsulfonyl)methyl]phenyl}-1,3,5-triazin-2-amine] has a pIC50 [1] of 8.22, a pIC50 [2] of 7.10 and a pIC50 [3] of 6.57.
For `CS(=O)(=O)Cc1cccc(Nc2ncnc(-c3cccc4c3OCCC4)n2)c1` [Example 12, 4-(3,4-Dihydro-2H-chromen-8-yl)-N-{3-[(methylsulfonyl)methyl]phenyl}-1,3,5-triazin-2-amine], the pIC50 [1] was 8.15, the pIC50 [2] was 6.64 and the pIC50 [3] was 6.29.
Compound `CS(=O)(=O)Cc1cccc(Nc2ncnc(-c3ccc(F)cc3OCC3CC3)n2)c1` [Example 55, 4-[2-(Cyclopropylmethoxy)-4-fluorophenyl]-N-{3-[(methylsulfonyl)methyl]phenyl}-1,3,5-triazin-2-amine] has a pIC50 [1] of 7.82, a pIC50 [2] of 6.49 and a pIC50 [3] of 6.02.
With `CS(=O)(=O)Cc1cccc(Nc2ncnc(-c3cc(F)ccc3OCc3cccc(F)c3)n2)c1` [Example 31, 4-{5-Fluoro-2-[(3-fluorobenzyl)oxy]phenyl}-N-{3-[(methylsulfonyl)methyl]phenyl}-1,3,5-triazin-2-amine] the pIC50 [1] was 8.40, the pIC50 [2] was 6.80 and the pIC50 [3] was 6.55.
Compound `Cc1cc(COc2cc(F)ccc2-c2ncnc(Nc3cccc(CS(C)(=O)=O)c3)n2)ccn1` [Example 87, 4-{4-Fluoro-2-[(2-methylpyridin-4-yl)methoxy]-phenyl}-N-{3-[(methylsulfonyl)methyl]phenyl}-1,3,5-triazin-2-amine] has a pIC50 [1] of 8.22, a pIC50 [2] of 6.13 and a pIC50 [3] of 6.43.
`COc1cc(F)ccc1-c1ncnc(Nc2cccc(CS(=O)(=O)C3CCCCC3)c2)n1` [Example 9, N-{3-[(Cyclohexylsulfonyl)methyl]phenyl}-4-(4-fluoro-2-methoxyphenyl)-1,3,5-triazin-2-amine] gave a pIC50 [1] of 8.00, a pIC50 [2] of 6.38 and a pIC50 [3] of 5.89.
For `CS(=O)(=O)Cc1cccc(Nc2ncnc(-c3ccc(F)cc3OCCCC(F)(F)F)n2)c1` [Example 59, 4-[4-Fluoro-2-(4,4,4-trifluorobutoxy)phenyl]-N-{3-[(methylsulfonyl)methyl]phenyl}-1,3,5-triazin-2-amine], the pIC50 [1] was 8.30, the pIC50 [2] was 6.66 and the pIC50 [3] was 6.48.
With `CS(=O)(=O)Cc1cccc(Nc2ncnc(-c3ccc(F)cc3OCCF)n2)c1` [Example 61, 4-[4-Fluoro-2-(2-fluoroethoxy)phenyl]-N-{3-[(methylsulfonyl)methyl]phenyl}-1,3,5-triazin-2-amine] the pIC50 [1] was 8.10, the pIC50 [2] was 6.42 and the pIC50 [3] was 6.13.
`COc1cc(F)ccc1-c1ncnc(Nc2cccc(CS(C)(=O)=O)c2)n1` [Example 3, 4-(4-Fluoro-2-methoxyphenyl)-N-{3-[(methylsulfonyl)methyl]phenyl}-1,3,5-triazin-2-amine] was tested, and the pIC50 [1] was 7.62, the pIC50 [2] was 6.04 and the pIC50 [3] was 5.77.
With `CCOc1cc(F)ccc1-c1ncnc(Nc2cccc(CS(C)(=O)=O)c2)n1` [Example 42, 4-(2-Ethoxy-4-fluorophenyl)-N-{3-[(methylsulfonyl)-methyl]phenyl}-1,3,5-triazin-2-amine] the pIC50 [1] was 8.30, the pIC50 [2] was 6.66 and the pIC50 [3] was 6.43.
`CS(=O)(=O)Cc1cccc(Nc2ncnc(-c3ccc(F)cc3OCc3ccccc3)n2)c1` [Example 4, 4-[2-(Benzyloxy)-4-fluorophenyl]-N-{3-[(methylsulfonyl)methyl]phenyl}-1,3,5-triazin-2-amine] showed a pIC50 [1] of 8.52, a pIC50 [2] of 7.00 and a pIC50 [3] of 6.89.
`CS(=O)(=O)Cc1cccc(Nc2ncnc(-c3ccc(F)cc3OCc3cccc(Cl)c3)n2)c1` [Example 85, 4-{2-[(3-Chlorobenzyl)oxy]-4-fluorophenyl}-N-{3-[(methylsulfonyl)methyl]phenyl}-1,3,5-triazin-2-amine] gave a pIC50 [1] of 8.15, a pIC50 [2] of 6.46 and a pIC50 [3] of 6.35.
For `COc1cc(F)ccc1-c1ncnc(Nc2ccc(F)c(CS(C)(=O)=O)c2)n1` [Example 33, 4-(4-Fluoro-2-methoxyphenyl)-N-{4-fluoro-3-[(methylsulfonyl)methyl]phenyl}-1,3,5-triazin-2-amine], the pIC50 [1] was 8.22, the pIC50 [2] was 6.74 and the pIC50 [3] was 6.34.
For `CS(=O)(=O)Cc1cccc(Nc2ncnc(-c3ccc(F)cc3OCc3ccc(C#N)cc3)n2)c1` [Example 90, 4-({5-Fluoro-2-[4-({3-[(methylsulfonyl)methyl]phenyl}amino)-1,3,5-triazin-2-yl]phenoxy}methyl)-benzonitrile], the pIC50 [1] was 8.52, the pIC50 [2] was 6.48 and the pIC50 [3] was 6.49.
`CS(=O)(=O)Cc1cccc(Nc2ncnc(-c3ccc(F)cc3OCc3ccncc3)n2)c1` [Example 89, 4-[4-Fluoro-2-(pyridin-4-ylmethoxy)phenyl]-N-{3-[(methylsulfonyl)methyl]phenyl}-1,3,5-triazin-2-amine] showed a pIC50 [1] of 8.30, a pIC50 [2] of 6.47 and a pIC50 [3] of 6.60.
`CS(=O)(=O)Cc1cccc(Nc2ncnc(-c3ccccc3OCc3cccc(Cl)c3)n2)c1` [Example 28, 4-{2-[(3-Chlorobenzyl)oxy]phenyl}-N-{3-[(methylsulfonyl)methyl]phenyl}-1,3,5-triazin-2-amine] gave a pIC50 [1] of 8.52, a pIC50 [2] of 6.46 and a pIC50 [3] of 6.41.
`COc1cc(F)ccc1-c1ncnc(Nc2cccc(CS(=O)(=O)C3CC3)c2)n1` [Example 40, N-{3-[(Cyclopropylsulfonyl)methyl]phenyl}-4-(4-fluoro-2-methoxyphenyl)-1,3,5-triazin-2-amine] was tested, and the pIC50 [1] was 7.85, the pIC50 [2] was 6.29 and the pIC50 [3] was 6.09.
